Consider 13 compounds from patent publication US6410584B1, “Method for inhibiting neoplastic cells with indole derivatives” (Cell Pathways, Inc., priority 1998, dated 2002).

In the case of `CCCCCS(=O)(=O)NC(=O)c1ccc2[nH]c(C)c(Cc3ccc(-c4ccccc4)cc3)c2c1` [Compound 95, 3-(biphenyl-4-ylmethyl)-2-methyl-5-(1-pentanesulfonylcarbamoyl)indole], the melting point (commonly the temperature, or range, at which the solid turns liquid) is 189 to 190 °C. Then `CCCCCS(=O)(=O)NC(=O)c1ccc2[nH]c(CCC)c(Cc3ccc(Cl)cc3Cl)c2c1` [Compound 101, 3-(2,4-dichlorobenzyl)-5-(1-pentanesulfonylcarbamoyl)-2-propylindole], with 168 to 169 °C; and `CCCCS(=O)(=O)NC(=O)c1ccc2c(C)c(Cc3ccc(Cl)cc3Cl)[nH]c2c1` [Compound 121, 6-(1-butanesulfonylcarbamoyl)-2-(2,4-dichlorobenzyl)-3-methylindole], with 215.5 to 216.1 °C. With `CCCS(=O)(=O)NC(=O)c1ccc2[nH]c(C)c(Cc3ccc(Cl)cc3Cl)c2c1` [Compound 91, 3-(2,4-dichlorobenzyl)-2-methyl-5-(1-propanesulfonylcarbamoyl)indole] the figure was 161 to 163 °C; with `CCCCCS(=O)(=O)NC(=O)c1ccc2[nH]c(C)c(Cc3ccc(OCc4ccccc4)cc3)c2c1` [Compound 100, 3-(4-benzyloxybenzyl)-2-methyl-5-(1-pentanesulfonylcarbamoyl)indole], 180 to 184 °C. With `CCCCS(=O)(=O)NC(=O)c1ccc2[nH]cc(Cc3ccc(Cl)cc3Cl)c2c1` [Compound 48, 5-(1-butanesulfonylcarbamoyl)-3-(2,4-dichlorobenzyl)indole] the figure was 165.5 to 166.2 °C; with `Cc1[nH]c2ccc(C(=O)NS(=O)(=O)CCC(C)C)cc2c1Cc1ccc(Cl)cc1Cl` [Compound 98, 3-(2,4-dichlorobenzyl)-2-methyl-5-(3-methyl-1-butanesulfonylcarbamoyl)indole], 167 to 169 °C. Consider `CCCCCCS(=O)(=O)NC(=O)c1ccc2[nH]c(C)c(Cc3ccc(Cl)cc3Cl)c2c1` [Compound 94, 3-(2,4-dichlorobenzyl)-5-(1-hexanesulfonylcarbamoyl)-2-methylindole], for which the melting point is 183 to 185 °C. Then `CCCCS(=O)(=O)NC(=O)c1ccc2[nH]c(C)c(C(=O)c3ccc(Cl)cc3Cl)c2c1` [Compound 97, 5-(1-butanesulfonylcarbamoyl)-3-(2,4-dichlorobenzoyl)-2-methylindole], with 241 to 243 °C; and `CCCCS(=O)(=O)NC(=O)c1ccc2c(Cc3ccc(Cl)cc3Cl)c(C)[nH]c2c1` [Compound 90, 6-(1-butanesulfonylcarbamoyl)-3-(2,4-dichlorobenzyl)-2-methylindole], with 249 to 250 °C. Then `Cc1[nH]c2ccc(C(=O)NS(=O)(=O)c3ccccc3)cc2c1Cc1ccc(Cl)cc1Cl` [Compound 93, 5-(benzenesulfonylcarbamoyl)-3-(2,4-dichlorobenzyl)-2-methylindole], with 244 to 245 °C; and `Cc1[nH]c2ccc(C(=O)NS(=O)(=O)C(F)(F)F)cc2c1Cc1ccc(Cl)cc1Cl` [Compound 113, 3-(2,4-dichlorobenzyl)-2-methyl-5-(trifluoromethanesulfonylcarbamoyl)indole], with 201 to 205 °C; and `CCCCCS(=O)(=O)NC(=O)c1ccc2[nH]c(C)c(Cc3ccccc3Cl)c2c1` [Compound 96, 3-(2-chlorobenzyl)-2-methyl-5-(1-pentanesulfonylcarbamoyl)indole], with 175 to 177 °C.
